Active and inactive are the calls of the source. No cut-off for these calls is given here.
How the values were obtained:
[1] = biological target: DNA dC->dU-editing enzyme APOBEC-3G (Homo sapiens) (UniProt Q9HC16); experiment: Binding affinity to FLAG-tagged human A3G expressed in human 293T cells at 13 uM incubated for 16 hrs by streptavidin agarose based immunoblot analysis; type: cell-based
[2] = biological target: DNA dC->dU-editing enzyme APOBEC-3G (Homo sapiens) (UniProt Q9HC16); experiment: Binding affinity to FLAG-tagged human A3G expressed in human 293T cells at 13 uM incubated for 16 hrs in presence of EDTA by streptavidin agarose based immunoblot analysis; type: cell-based

Sequence of DNA dC->dU-editing enzyme APOBEC-3G (Homo sapiens) (Q9HC16 whole entry): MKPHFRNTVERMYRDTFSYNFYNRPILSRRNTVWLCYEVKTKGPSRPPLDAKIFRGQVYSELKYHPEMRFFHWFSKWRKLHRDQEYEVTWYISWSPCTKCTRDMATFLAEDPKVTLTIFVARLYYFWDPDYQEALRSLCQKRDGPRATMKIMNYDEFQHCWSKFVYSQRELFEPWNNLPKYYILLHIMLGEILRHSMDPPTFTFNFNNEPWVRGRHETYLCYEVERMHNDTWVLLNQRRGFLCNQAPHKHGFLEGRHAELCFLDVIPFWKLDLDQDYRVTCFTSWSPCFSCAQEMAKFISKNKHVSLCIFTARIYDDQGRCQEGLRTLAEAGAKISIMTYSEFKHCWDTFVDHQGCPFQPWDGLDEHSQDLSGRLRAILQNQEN

COC(=O)CCCC[C@@H]1SC[C@@H]2NC(=O)N[C@@H]21 was tested, and the Activity [1] was “inactive”.
With O=C(CCCC[C@@H]1SC[C@@H]2NC(=O)N[C@@H]21)NCCCCCCOC(=O)Nc1cc(CNCCS)nc(CNCCS)c1 the Activity [1] was “Active” and the Activity [2] was “inactive”.

From ChEMBL document CHEMBL3826958, “Zinc-mediated binding of a low-molecular-weight stabilizer of the host anti-viral factor apolipoprotein B mRNA-editing enzyme, catalytic polypeptide-like 3G” (Bioorg Med Chem, 2016)
